{"source": "patent US20220313620A1", "about": "“COMPOSITION FOR PREVENTING AND TREATING TAUOPATHIES” (SERVICIO ANDALUZ DE SALUD, priority 2019, published 2022)", "test_system": "Mitogen-activated Protein Kinase (MAPK/ERK1/2)", "test": "Hippocampal MAPK/ERK1/2 (western blot) after 10 days of oral drinking", "type": "in vivo, Wistar rats", "settings": "oral by drinking 100 mg/Kg for 10 days, hippocampus, FIG. 10", "experimental": "Animal experimental procedures were carried out in accordance with the European Communities directive 2010/63/EU and Spanish legislation (Real Decreto 53/2013). The protocol was approved by the Research and approved by Ethics Committee for Animal Experiments of the University of Malaga, Spain. In accordance with the ARRIVE guidelines, all efforts were made to minimize animal suffering and to reduce the number of animals used per experimental group. Chronic drinking experiments on Wistar rats were performed on 20 male rats. All adult rats, ageing 2 months (≈300 g of body weight), were provided by Charles River Laboratories (Barcelona, Spain). The animals were housed individually under a standard 12 h light-dark cycle in a room with temperature and humidity control. Water and rat chow pellets were provided ad libitum throughout the course of the present study. […]\nWestern Blot Analysis. […] Bands were quantified by densitometric analysis using ImageJ software (Rasband, WS, ImageJ, US National Institutes of Health, Bethesda, Md., USA). […] The results were expressed as the protein/α-Adaptin ratio or phosphorylated/total protein ratio and normalized to the control group (Y axis represents ‘fold mean of the control values’).\nAll data are expressed as mean±SEM. […]"}
{"smiles": "COC1[C@@H](O)[C@@H](O)C(O)[C@H](O)[C@H]1O", "note": "(stereo partly drawn) [DPIN, (1S,2S,4S,5R)-6-methoxycyclohexane-1,2,3,4,5-pentol]", "values": [{"measurement": "kinase activation and total expression of MAPK/ERK1/2", "value": "No other changes"}]}
